Pest or weed control data for 16 compounds are collected here from patent US8895474B2, “Herbicidally active cyclopentanediones and derivatives thereof, and their use in controlling weeds” (Syngenta Limited, priority 2009, dated 2014).

Holding throughout (assay type): in vivo
Conditions in all cases: 312 h, rate 250 g/ha, evaluated after 13 days, 100=total damage to plant, 0=no damage to plant

In experiment [1] the test system is Alopecurus myosuroides (ALOMY). In words: Post-emergence herbicidal activity, glasshouse pot test. The essentials: (§1)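 Visual damage score 0–100 (100 = plant killed) taken 13 d after treatment. Pots sown in standard soil, sprayed post-emergence at day 8; spray solution: acetone/water 50:50 + 0.5% Tween 20. Glasshouse 24/16 °C, 14 h photoperiod, 65% RH.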
Experiment [2] concerns Avena fatua (AVEFA). The experiment is described as above. The gist of the method:
as §1

In experiment [3] the test system is Echinochloa crus-galli (ECHCG). Described as above. The gist of the method:
as §1

The test system of experiment [4] is Lolium perenne (LOLPE). Described as above. The essentials:
as §1

In experiment [5] the test system is Alopecurus myosuroides (ALOMY). In words: Pre-emergence herbicidal activity, glasshouse pot test. The gist of the method:
(§2)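 Seeds were sown in standard soil and sprayed one day after sowing with an aqueous solution of the active ingredient formulated in acetone/water (50:50) containing 0.5% Tween 20. Plants grew in the glasshouse at 24/16 °C day/night, 14 h light, 65% humidity. Damage was scored after 13 days (0 = none, 100 = total).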

The test system of experiment [6] is Avena fatua (AVEFA). The experiment is described as above. The gist of the method: as §2
Experiment [7] concerns Echinochloa crus-galli (ECHCG). The description is as above. The essentials:
as §2

Experiment [8] relates to Lolium perenne (LOLPE). Described as above. The gist of the method:
as §2

As a reminder, the pest or weed control is how far the test organism was held down. Read a low pest or weed control as a weak effect.

For `CCc1ccc(Oc2ncc(C(F)(F)F)cc2C(F)(F)F)cc1C1=C(O)CCC1=O` [Compound A-71], the pest or weed control at 250 g/ha was found to be 100% in experiment [1]; 100% with Avena fatua (AVEFA) [2]; 100% in experiment [3]; 100% in the experiment on Lolium perenne (LOLPE) [4]; 90% in experiment [5]; 80% in the experiment with Avena fatua (AVEFA) [6]. The pest or weed control at 250 g/ha (in experiment [7]; in the experiment with Lolium perenne (LOLPE) [8]) was 100% throughout.
With `CCc1ccc(Oc2ncc(Br)cn2)cc1C1=C(O)CCC1=O` [Compound A-72], the pest or weed control at 250 g/ha in experiment [1] came out at 50%; with Avena fatua (AVEFA) [2], 30%; in experiment [3], 100%; in the experiment on Lolium perenne (LOLPE) [4] it was 30%; in experiment [5], 40%; in the experiment with Avena fatua (AVEFA) [6], 30%. The results for the pest or weed control at 250 g/ha (in experiment [7]; with Lolium perenne (LOLPE) [8]) were 100% and 70%, respectively.
Regarding `CCc1ccc(Oc2nc3ccc(OC)cc3s2)cc1C1=C(O)CCC1=O` [Compound A-75], the pest or weed control at 250 g/ha came out at 10% in experiment [1]; 0% with Avena fatua (AVEFA) [2]; 40% in experiment [3]; 20% in the experiment on Lolium perenne (LOLPE) [4]; 30% in experiment [5]; 20% in the experiment on Avena fatua (AVEFA) [6]. The pest or weed control at 250 g/ha in experiment [7] worked out at 100%; in the experiment with Lolium perenne (LOLPE) [8], 80%.
For `CCc1ccc(Oc2ccc(C(F)(F)F)cc2[N+](=O)[O-])cc1C1=C(O)CCC1=O` [Compound A-76], the pest or weed control at 250 g/ha was found to be 50% in experiment [1]; 80% in the experiment on Avena fatua (AVEFA) [2]; 80% in experiment [3]; 30% in the experiment on Lolium perenne (LOLPE) [4]; 20% in experiment [5]; 0% in the experiment with Avena fatua (AVEFA) [6]. Further, the pest or weed control at 250 g/ha in experiment [7] was 100%; with Lolium perenne (LOLPE) [8], 50%.
Regarding `CCc1ccc(Oc2nc3c(Cl)cc(Cl)cc3s2)cc1C1=C(O)CCC1=O` [Compound A-77], the pest or weed control at 250 g/ha is 20% in experiment [1]; 0% in the experiment with Avena fatua (AVEFA) [2]; 80% in experiment [3]; 30% in the experiment with Lolium perenne (LOLPE) [4]; 20% in experiment [5]; 0% in the experiment on Avena fatua (AVEFA) [6]. Also, the pest or weed control at 250 g/ha in experiment [7] was 90%; in the experiment with Lolium perenne (LOLPE) [8], 20%.
As to `CCc1ccc(Oc2ncc(Cl)cc2C(F)(F)F)cc1C1=C(O)CCC1=O` [Compound A-78], the pest or weed control at 250 g/ha is 100% in experiment [1]; 90% in the experiment with Avena fatua (AVEFA) [2]; 100% in experiment [3]; 90% in the experiment on Lolium perenne (LOLPE) [4]; 70% in experiment [5]; 70% with Avena fatua (AVEFA) [6]. Also, the pest or weed control at 250 g/ha (in experiment [7]; in the experiment with Lolium perenne (LOLPE) [8]) was 100% each time.
Consider `CCc1ccc(Oc2cnc3ccc(Br)cc3n2)cc1C1=C(O)CCC1=O` [Compound A-79], for which the pest or weed control at 250 g/ha in experiment [1] worked out at 0%; in the experiment on Avena fatua (AVEFA) [2], 0%; in experiment [3] it was 50%; with Lolium perenne (LOLPE) [4], 20%; in experiment [5], 40%; with Avena fatua (AVEFA) [6] it was 20%. The pest or weed control at 250 g/ha in experiment [7] was determined as 90%; with Lolium perenne (LOLPE) [8], 70%.
On to `CCc1ccc(Oc2ccc(C(F)(F)F)cc2Br)cc1C1=C(O)CCC1=O` [Compound A-80], for which the pest or weed control at 250 g/ha was found to be 40% in experiment [1]; 50% with Avena fatua (AVEFA) [2]; 80% in experiment [3]; 30% with Lolium perenne (LOLPE) [4]; 0% in experiment [5]; 10% with Avena fatua (AVEFA) [6]. The results for the pest or weed control at 250 g/ha (in experiment [7]; in the experiment with Lolium perenne (LOLPE) [8]) were 80% and 50%, respectively.
As to `CCc1ccc(Oc2ccc([N+](=O)[O-])c(Cl)c2)cc1C1=C(O)C2C(C1=O)[C@H]1CC[C@@H]2CC1` (some centres unmarked) [Compound A-86], the pest or weed control at 250 g/ha in experiment [1] turned out to be 10%; with Avena fatua (AVEFA) [2], 10%; in experiment [3], 100%; with Lolium perenne (LOLPE) [4], 10%; in experiment [5], 0%; in the experiment with Avena fatua (AVEFA) [6], 0%. The pest or weed control at 250 g/ha (in experiment [7]; in the experiment on Lolium perenne (LOLPE) [8]) was 20% throughout.
Turning to `CCc1ccc(Oc2ccc(C(F)(F)F)cn2)cc1C1=C(O)C2C(C1=O)[C@H]1CC[C@@H]2CC1` (some centres unmarked) [Compound A-87], the pest or weed control at 250 g/ha in experiment [1] came out at 90%; with Avena fatua (AVEFA) [2] it was 100%; in experiment [3], 100%; in the experiment on Lolium perenne (LOLPE) [4], 90%; in experiment [5], 80%; in the experiment on Avena fatua (AVEFA) [6] it was 30%. Besides, the pest or weed control at 250 g/ha was found to be 100% in experiment [7] and 90% with Lolium perenne (LOLPE) [8].
Take `CCc1ccc(Oc2ncc(C(F)(F)F)cc2Cl)cc1C1=C(O)C2C(C1=O)[C@H]1CC[C@@H]2CC1` (some centres unmarked) [Compound A-88]: the pest or weed control at 250 g/ha in experiment [1] was 90%; in the experiment with Avena fatua (AVEFA) [2] it was 100%; in experiment [3], 100%; in the experiment on Lolium perenne (LOLPE) [4] it was 90%; in experiment [5] it was 90%; in the experiment with Avena fatua (AVEFA) [6] it was 40%. Further, the pest or weed control at 250 g/ha (in experiment [7]; in the experiment on Lolium perenne (LOLPE) [8]) was 100% throughout.
On to `CCc1ccc(Oc2ncc(C(F)(F)F)cc2F)cc1C1=C(O)C2C(C1=O)[C@H]1CC[C@@H]2CC1` (some centres unmarked) [Compound A-89], for which the pest or weed control at 250 g/ha in experiment [1] is 100%; in the experiment with Avena fatua (AVEFA) [2] it was 100%; in experiment [3], 100%; in the experiment on Lolium perenne (LOLPE) [4], 100%; in experiment [5] it was 50%; in the experiment on Avena fatua (AVEFA) [6], 70%. Further, the pest or weed control at 250 g/ha (in experiment [7]; in the experiment on Lolium perenne (LOLPE) [8]) was 100% each time.
Take `CCc1ccc(Oc2ncc(Cl)cc2Cl)cc1C1=C(O)C2C(C1=O)[C@H]1CC[C@@H]2CC1` (some centres unmarked) [Compound A-90]: the pest or weed control at 250 g/ha in experiment [1] is 90%; with Avena fatua (AVEFA) [2] it was 100%; in experiment [3], 100%; in the experiment with Lolium perenne (LOLPE) [4] it was 100%; in experiment [5] it was 70%; with Avena fatua (AVEFA) [6], 70%. In addition, the pest or weed control at 250 g/ha (in experiment [7]; in the experiment with Lolium perenne (LOLPE) [8]) was 100% each time.
Take `CCc1ccc(Oc2cnc3ccc(Br)cc3n2)cc1C1=C(O)C2C(C1=O)[C@H]1CC[C@@H]2CC1` (some centres unmarked) [Compound A-93]: the pest or weed control at 250 g/ha in experiment [1] worked out at 60%; in the experiment on Avena fatua (AVEFA) [2] it was 60%; in experiment [3], 100%; in the experiment with Lolium perenne (LOLPE) [4], 50%; in experiment [5], 10%; with Avena fatua (AVEFA) [6], 0%. In addition, the pest or weed control at 250 g/ha in experiment [7] was 100%; in the experiment on Lolium perenne (LOLPE) [8] it was 60%.
For the compound `CCc1ccc(Oc2ccc(C(F)(F)F)cc2[N+](=O)[O-])cc1C1=C(O)C2C(C1=O)[C@H]1CC[C@@H]2CC1` (some centres unmarked) [Compound A-105], the pest or weed control at 250 g/ha amounted to 40% in experiment [1]; 40% in the experiment with Avena fatua (AVEFA) [2]; 90% in experiment [3]; 30% in the experiment on Lolium perenne (LOLPE) [4]; 10% in experiment [5]; 0% with Avena fatua (AVEFA) [6]. Moreover, the pest or weed control at 250 g/ha in experiment [7] is 60%; with Lolium perenne (LOLPE) [8], 40%.
For `CCc1ccc(Oc2nc3ccc(C(F)(F)F)cc3s2)cc1C1=C(O)C2C(C1=O)[C@H]1CC[C@@H]2CC1` (some centres unmarked) [Compound A-108], the pest or weed control at 250 g/ha in experiment [1] worked out at 90%; in the experiment on Avena fatua (AVEFA) [2], 90%; in experiment [3], 100%; in the experiment with Lolium perenne (LOLPE) [4] it was 70%; in experiment [5], 30%; in the experiment with Avena fatua (AVEFA) [6], 10%. For the same compound, the pest or weed control at 250 g/ha came out at 80% in experiment [7] and 50% with Lolium perenne (LOLPE) [8].
